Measurements as given in patent publication US20260130900A1, “Controlled Release Pharmaceutical Composition” (Daewoong Pharmaceutical Co., Ltd., priority 2022, published 2026).

Test: Single-dose escalating clinical testing, safety/tolerability of the active ingredient
Assay type: in vivo, human
Source text: In order to confirm the safety/tolerability of the active ingredient in the human body, side effects were checked in healthy adult subjects.
The clinical testing was designed for 32 healthy adult subjects in a randomized, double-blinded, placebo-controlled, single-dose escalating manner, as shown in Table 1 below. The capsule tablets used in this clinical testing were produced by using Vcaps® enteric-coated capsules containing only the active ingredient in hydrochloride form without additional excipients, and filling capsules by volume. The ingredients of the enteric-coated tablet (1 tablet) used in the clinical testing are shown in Table 2 below, and were named ‘Comparative Example 1’. In addition, for the enteric-coated tablet administrated group, 5 tablets were administered at a time.

## O[C@H]1CCCN[C@@H]1CCCn1cnc2c(Cl)c(Cl)ccc21 [API, (2R,3S)-2-(3-(4,5-dichloro-1H-benzo[d]imidazol-1-yl)propyl) piperidin-3-ol 1HCl]
Single administration, FIG. 1
  time of occurrence of nausea and vomiting side effects versus exposure in the body: the majority of cases occur before the blood concentration in the body increases
Single oral administration 100-600 mg, enteric coated capsule or tablet, healthy adult subjects
  most frequently occurring adverse reactions: gastrointestinal adverse reactions including nausea, vomiting, diarrhea, and abdominal pain
